Measurements reported in patent US9670227B2, “Thienopyrimidine derivatives, a process for their preparation and pharmaceutical compositions containing them” (LES LABORATOIRES SERVIER, priority 2013, dated 2017).

Biological target: Mcl-1 protein (UniProtKB primary accession number: Q07820) (Homo sapiens, UniProt Q07820)
Assay: Inhibition of Mcl-1 by fluorescence polarisation, Method 1
Format: binding
Conditions: fluorescence polarisation test; Method 2 values are underlined in the patent (underlining not visible here); read-out: IC50 (M) Mcl-1 FP
Method: The relative binding potency of each compound was determined via Fluorescence Polarisation (FP).
An 11 point serial dilution of each compound was prepared in DMSO and 2 μl transferred into flat bottomed, low binding, 384-well plate (final DMSO concentration 5%). 38 μl of buffer (10 mM 4-(2-hydroxyethyl)-1-piperazineethanesulfonic acid [HEPES], 150 mM NaCl, 0.05% Tween 20, pH 7.4), containing the Fluorescein labelled ligand (final concentration 1 nM) and Mcl-1 protein (final concentration 5 nM) was then added.

Chain of Mcl-1 protein (Q07820 whole entry): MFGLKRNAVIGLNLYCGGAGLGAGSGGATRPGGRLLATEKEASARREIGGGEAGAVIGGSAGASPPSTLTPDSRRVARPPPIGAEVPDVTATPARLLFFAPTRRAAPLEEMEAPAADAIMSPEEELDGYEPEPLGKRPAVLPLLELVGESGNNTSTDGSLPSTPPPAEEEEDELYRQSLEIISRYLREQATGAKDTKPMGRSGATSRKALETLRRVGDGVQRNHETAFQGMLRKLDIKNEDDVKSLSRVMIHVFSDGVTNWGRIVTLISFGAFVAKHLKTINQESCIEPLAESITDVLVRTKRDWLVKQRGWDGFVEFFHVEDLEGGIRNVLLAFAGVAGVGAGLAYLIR

Row | IC50 [M] | Compound
1 | 6.1e-09 | Cc1c(-c2c(-c3ccc(F)cc3)sc3ncnc(OC(Cc4ccccc4OCc4ccnc(-c5ccco5)n4)C(=O)O)c23)ccc(OCCN2CCN(C)CC2)c1Cl [Example 117, (2R)-2-{[(5Sa)-5-{3-chloro-2-methyl-4-[2-(4-methylpiperazin-1-yl)ethoxy]phenyl}-6-(4-fluorophenyl)thieno[2,3-d]pyrimidin-4-yl]oxy}-3-(2-{[2-(furan-2-yl)pyrimidin-4-yl]methoxy}phenyl)propanoic acid]
2 | 3.8e-09 | Cc1cnccc1-c1nccc(COc2ccccc2CC(Oc2ncnc3sc(-c4ccc(F)cc4)c(-c4ccc(OCCN5CCN(C)CC5)c(Cl)c4C)c23)C(=O)O)n1 [Example 120, (2R)-2-{[(5Sa)-5-{3-chloro-2-methyl-4-[2-(4-methylpiperazin-1-yl)ethoxy]phenyl}-6-(4-fluorophenyl)thieno[2,3-d]pyrimidin-4-yl]oxy}-3-(2-{[2-(3-methylpyridin-4-yl)pyrimidin-4-yl]methoxy}phenyl)propanoic acid]
3 | 4.3e-09 | Cc1ccncc1-c1nccc(COc2ccccc2CC(Oc2ncnc3sc(-c4ccc(F)cc4)c(-c4ccc(OCCN5CCN(C)CC5)c(Cl)c4C)c23)C(=O)O)n1 [Example 123, (2R)-2-{[(5Sa)-5-{3-chloro-2-methyl-4-[2-(4-methylpiperazin-1-yl)ethoxy]phenyl}-6-(4-fluorophenyl)thieno[2,3-d]pyrimidin-4-yl]oxy}-3-(2-{[2-(4-methylpyridin-3-yl)pyrimidin-4-yl]methoxy}phenyl)propanoic acid]
4 | 8.6e-09 | COc1ccccc1-c1nccc(COc2ccccc2CC(Oc2ncnc3sc(-c4ccc(F)cc4)c(-c4ccc(OCCN(C)C)c(Cl)c4C)c23)C(=O)O)n1 [Example 135, (2R)-2-{[(5Sa)-5-{3-chloro-4-[2-(dimethylamino)ethoxy]-2-methylphenyl}-6-(4-fluorophenyl)thieno[2,3-d]pyrimidin-4-yl]oxy}-3-(2-{[2-(2-methoxyphenyl)pyrimidin-4-yl]methoxy}phenyl)propanoic acid]
5 | 3.1e-08 | Cc1c(-c2c(-c3ccc(F)cc3)sc3ncnc(OC(Cc4ccccc4OCc4cnccn4)C(=O)O)c23)ccc(OCCN2CCOCC2)c1Cl [Example 148, (2R)-2-{[(5Sa)-5-{3-chloro-2-methyl-4-[2-(morpholin-4-yl)ethoxy]phenyl}-6-(4-fluorophenyl)thieno[2,3-d]pyrimidin-4-yl]oxy}-3-[2-(pyrazin-2-ylmethoxy)phenyl]propanoic acid]
6 | 1.2e-08 | COc1ccccc1CC(Oc1ncnc2sc(-c3ccc(F)o3)c(-c3ccc(OCCN4CCN(C)CC4)c(Cl)c3C)c12)C(=O)O [Example 149, (2R)-2-{[(5Sa)-5-{3-chloro-2-methyl-4-[2-(4-methylpiperazin-1-yl)ethoxy]phenyl}-6-(5-fluorofuran-2-yl)thieno[2,3-d]pyrimidin-4-yl]oxy}-3-(2-methoxyphenyl)propanoic acid]
7 | 9.3e-09 | Cc1c(-c2c(-c3ccc(F)o3)sc3ncnc(OC(Cc4ccccc4OCC4CCCO4)C(=O)O)c23)ccc(OCCN2CCN(C)CC2)c1Cl [Example 150, (2R)-2-{[(5Sa)-5-{3-chloro-2-methyl-4-[2-(4-methylpiperazin-1-yl)ethoxy]phenyl}-6-(5-fluorofuran-2-yl)thieno[2,3-d]pyrimidin-4-yl]oxy}-3-{2-[(2R)-tetrahydrofuran-2-ylmethoxy]phenyl}propanoic acid]
8 | 4.6e-09 | Cc1c(-c2c(-c3ccc(F)o3)sc3ncnc(OC(Cc4ccccc4OCC(F)(F)F)C(=O)O)c23)ccc(OCCN2CCN(C)CC2)c1Cl [Example 158, (2R)-2-{[(5Sa)-5-{3-chloro-2-methyl-4-[2-(4-methylpiperazin-1-yl)ethoxy]phenyl}-6-(5-fluorofuran-2-yl)thieno[2,3-d]pyrimidin-4-yl]oxy}-3-[2-(2,2,2-trifluoroethoxy)phenyl]propanoic acid]
9 | 3e-09 | Cc1c(-c2c(-c3ccc(F)o3)sc3ncnc(OC(Cc4ccccc4OCc4ccnc(-c5ccncc5)n4)C(=O)O)c23)ccc(OCCN2CCN(C)CC2)c1Cl [Example 172, (2R)-2-{[(5Sa)-5-{3-chloro-2-methyl-4-[2-(4-methylpiperazin-1-yl)ethoxy]phenyl}-6-(5-fluorofuran-2-yl)thieno[2,3-d]pyrimidin-4-yl]oxy}-3-(2-{[2-(pyridin-4-yl)pyrimidin-4-yl]methoxy}phenyl)propanoic acid]
10 | 2.3e-09 | COCCc1nccc(COc2ccccc2CC(Oc2ncnc3sc(-c4ccc(F)o4)c(-c4ccc(OCCN5CCN(C)CC5)c(Cl)c4C)c23)C(=O)O)n1 [Example 174, (2R)-2-{[(5Sa)-5-{3-chloro-2-methyl-4-[2-(4-methylpiperazin-1-yl)ethoxy]phenyl}-6-(5-fluorofuran-2-yl)thieno[2,3-d]pyrimidin-4-yl]oxy}-3-(2-{[2-(2-methoxyethyl)pyrimidin-4-yl]methoxy}phenyl)propanoic acid]
11 | 3.9e-09 | Cc1c(-c2c(-c3ccc(F)o3)sc3ncnc(OC(Cc4ccccc4OCc4ccnc(N5CCOCC5)n4)C(=O)O)c23)ccc(OCCN2CCN(C)CC2)c1Cl [Example 175, (2R)-2-{[(5Sa)-5-{3-chloro-2-methyl-4-[2-(4-methylpiperazin-1-yl)ethoxy]phenyl}-6-(5-fluorofuran-2-yl)thieno[2,3-d]pyrimidin-4-yl]oxy}-3-(2-{[2-(morpholin-4-yl)pyrimidin-4-yl]methoxy}phenyl)propanoic acid]
12 | 3.1e-09 | COc1nccc(COc2ccccc2CC(Oc2ncnc3sc(-c4ccc(F)o4)c(-c4ccc(OCCN5CCN(C)CC5)c(Cl)c4C)c23)C(=O)O)n1 [Example 176, (2R)-2-{[(5Sa)-5-{3-chloro-2-methyl-4-[2-(4-methylpiperazin-1-yl)ethoxy]phenyl}-6-(5-fluorofuran-2-yl)thieno[2,3-d]pyrimidin-4-yl]oxy}-3-{2-[(2-methoxypyrimidin-4-yl)methoxy]phenyl}propanoic acid]
13 | 8.9e-09 | Cc1c(-c2c(-c3ccc(F)o3)sc3ncnc(OC(Cc4ccccc4OCc4ccnn4C)C(=O)O)c23)ccc(OCCN2CCN(C)CC2)c1Cl [Example 180, (2R)-2-{[(5Sa)-5-{3-chloro-2-methyl-4-[2-(4-methylpiperazin-1-yl)ethoxy]phenyl}-6-(5-fluorofuran-2-yl)thieno[2,3-d]pyrimidin-4-yl]oxy}-3-{2-[(1-methyl-1H-pyrazol-5-yl)methoxy]phenyl}propanoic acid]
14 | 4.8e-09 | Cc1c(-c2c(-c3ccc(F)o3)sc3ncnc(OC(Cc4ccccc4OCc4ccnn4C(C)(C)C)C(=O)O)c23)ccc(OCCN2CCN(C)CC2)c1Cl [Example 181, (2R)-3-{2-[(1-tert-butyl-1H-pyrazol-5-yl)methoxy]phenyl}-2-{[(5Sa)-5-{3-chloro-2-methyl-4-[2-(4-methylpiperazin-1-yl)ethoxy]phenyl}-6-(5-fluorofuran-2-yl)thieno[2,3-d]pyrimidin-4-yl]oxy}propanoic acid]
15 | 4.4e-09 | Cc1c(-c2c(-c3ccc(F)o3)sc3ncnc(OC(Cc4ccccc4OCc4ccnn4C(C)C)C(=O)O)c23)ccc(OCCN2CCN(C)CC2)c1Cl [Example 182, (2R)-2-{[(5Sa)-5-{3-chloro-2-methyl-4-[2-(4-methylpiperazin-1-yl)ethoxy]phenyl}-6-(5-fluorofuran-2-yl)thieno[2,3-d]pyrimidin-4-yl]oxy}-3-(2-{[1-(propan-2-yl)-1H-pyrazol-5-yl]methoxy}phenyl)propanoic acid]
16 | 6e-09 | CCn1nccc1COc1ccccc1CC(Oc1ncnc2sc(-c3ccc(F)o3)c(-c3ccc(OCCN4CCN(C)CC4)c(Cl)c3C)c12)C(=O)O [Example 184, (2R)-2-{[(5Sa)-5-{3-chloro-2-methyl-4-[2-(4-methylpiperazin-1-yl)ethoxy]phenyl}-6-(5-fluorofuran-2-yl)thieno[2,3-d]pyrimidin-4-yl]oxy}-3-{2-[(1-ethyl-1H-pyrazol-5-yl)methoxy]phenyl}propanoic acid]
17 | 6.4e-09 | CCCCn1nccc1COc1ccccc1CC(Oc1ncnc2sc(-c3ccc(F)o3)c(-c3ccc(OCCN4CCN(C)CC4)c(Cl)c3C)c12)C(=O)O [Example 188, (2R)-3-{2-[(1-butyl-1H-pyrazol-5-yl)methoxy]phenyl}-2-{[(5Sa)-5-{3-chloro-2-methyl-4-[2-(4-methylpiperazin-1-yl)ethoxy]phenyl}-6-(5-fluorofuran-2-yl)thieno[2,3-d]pyrimidin-4-yl]oxy}propanoic acid]
18 | 5.5e-09 | Cc1c(-c2c(-c3ccc(F)o3)sc3ncnc(OC(Cc4ccccc4OCc4cnccn4)C(=O)O)c23)ccc(OCCN2CCN(C)CC2)c1Cl [Example 189, (2R)-2-{[(5Sa)-5-{3-chloro-2-methyl-4-[2-(4-methylpiperazin-1-yl)ethoxy]phenyl}-6-(5-fluorofuran-2-yl)thieno[2,3-d]pyrimidin-4-yl]oxy}-3-[2-(pyrazin-2-ylmethoxy)phenyl]propanoic acid]
19 | 9.8e-09 | COc1ccccc1CC(Oc1ncnc2sc(-c3ccco3)c(-c3ccc(OCCN4CCN(C)CC4)c(Cl)c3C)c12)C(=O)O [Example 209, (2R)-2-{[(5Sa)-5-{3-chloro-2-methyl-4-[2-(4-methylpiperazin-1-yl)ethoxy]phenyl}-6-(furan-2-yl)thieno[2,3-d]pyrimidin-4-yl]oxy}-3-(2-methoxyphenyl)propanoic acid]
20 | 1.8e-08 | Cc1c(-c2c(-c3ccco3)sc3ncnc(OC(Cc4ccccc4OC4CCCc5cccnc54)C(=O)O)c23)ccc(OCCN2CCN(C)CC2)c1Cl [Example 213, (2R)-2-{[(5Sa)-5-{3-chloro-2-methyl-4-[2-(4-methylpiperazin-1-yl)ethoxy]phenyl}-6-(furan-2-yl)thieno[2,3-d]pyrimidin-4-yl]oxy}-3-[2-(5,6,7,8-tetrahydroquinolin-8-yloxy)phenyl]propanoic acid]
